Earlier results, collected in patent US7148007B2, “Method for evaluating immunotoxicity of test substance” (priority 2001, dated 2006).

Settings: toxicity level based on that of 2,3,7,8-TCDD being 1; WHO 1998 TEF scheme

| SMILES | WHO-TEF |
| --- | --- |
| Clc1c(Cl)c(Cl)c2c(c1Cl)Oc1c(Cl)c(Cl)c(Cl)c(Cl)c1O2 [OCDD, 1,2,3,4,5,6,7,8,9-Octachlorodibenzo-p-dioxin] | 0.0001 |
| Clc1cc2c(cc1Cl)Oc1cc(Cl)c(Cl)cc1O2 [2,3,7,8-TCDD, 2,3,7,8-Tetraorodibenzo-p-dioxin] | 1 |
| Clc1cc2c(cc1Cl)Oc1c(Cl)c(Cl)c(Cl)c(Cl)c1O2 [1,2,3,4,7,8-HxCDD, 1,2,3,4,7,8-Hexachlorodibenzo-p-dioxin] | 0.1 |
| Clc1cc2c(c(Cl)c1Cl)Oc1cc(Cl)c(Cl)c(Cl)c1O2 [1,2,3,6,7,8-HxCDD] | 0.1 |
| Clc1cc2c(cc1Cl)Oc1c(cc(Cl)c(Cl)c1Cl)O2 [1,2,3,7,8-PeCDD, 1,2,3,7,8-Pentachlorodibnzo-p-dioxin] | 1 |
| Clc1cc2c(c(Cl)c1Cl)Oc1c(cc(Cl)c(Cl)c1Cl)O2 [1,2,3,7,8,9-HxCDD, 1,2,3,7,8,9-Hexachlorodibenzo-p-dioxin] | 0.1 |
